Measurements as given in US20220241378A1, “COMPOSITIONS AND METHODS FOR TREATMENT OF CHRONIC GRANULOMATOUS DISEASE” (priority 2019, published 2022).

Tested on: C57BL/6 and p47phox-/- mice subjected to DSS-induced colitis
Test: DSS-induced colitis in C57BL/6 and p47phox-/- mice
Type: in vivo
Procedure: In vivo models mimicking human pathology such as lung and gut inflammation were prepared. A model of lung inflammation was tested using C57BL/6 and p47phox-/- mice. The mice were infected with A. fumigatus intranasally and treated them with Tβ4 for 7 consecutive days starting a week after the infection. LC3-II (FIG. 1F) and DAPK1 (FIG. 1G) expression were both defective in p47phox-/- mice, but restored by Tβ4 and ablated (LC3-II) upon siTβ4 (FIGS. 10A and 10B). In addition, gut inflammation was tested using the same mouse model. Acute colitis in p47phox-/- mice was initiated by administering […] in drinking water for 7 days followed by 7 days of DSS-free autoclaved water. Subsequently, Tβ4 was therapeutically administered daily for 7 days, after DSS treatment, at the time at which mice started to lose weight. Consistent with previous findings (de Luca et al., 2014), LC3-II (FIG. 1H) and DAPK1 (FIG. 1I) expression were both defective in the colon ofp47phox-/- mice with colitis as opposed to WT mice but restored upon treatment with T134 (FIGS. 1H and 1I). DAPK1 expression in colon lysates of C57BL/6 and p47^phox-/- mice subjected to DSS-induced colitis for a week and treated intraperitoneally with 5 mg/kg Tβ4 for 7 consecutive days after DSS treatment, n=6-10 mice per group. Data are presented as mean ±SD and are representative of two experiments. Mice were categorized as Naive (uninfected or untreated mice) or None (infected mice). For immunoblotting, normalization was performed on mouse β-actin or Gapdh and corresponding pixel density or ratio is depicted. For immunofluorescence, nuclei were counterstained with DAPI. Photographs were taken with a high-resolution microscope (Olympus BX51), 40× and 100× magnification. LC3 mean fluorescence intensity (MFI) was measured with the ImageJ software. In FIGS. 1F-1H, n=6-10 mice per group. Data are presented as mean ±SD and are representative of two experiments. Naïve, uninfected or untreated mice. None, infected mice.
Dextran Sulfate Sodium (DSS) (2.5% wt/vol, […]; MP Biomedicals) was administered in drinking water ad libitum for 7 days. Fresh solution was replaced on day 3. Mice were injected with 5 mg/kg of Tβ4 every day intraperitoneally in concomitance with (days 0→7) or after (days 7→14) DSS administration. Control received the diluent alone. Weight loss, stool consistency, and faecal blood were recorded daily. Upon necropsy (7 and 14 days after DSS administration), tissues were collected for histology and cytokine analysis. Colonic sections were stained with Hematoxylin and Eosin. Colitis disease activity index was calculated daily for each mouse based on weight loss, occult blood, and stool consistency. A score of 1-4 was given for each parameter as described (McNamee et al., 2011 Interleukin 37 expression protects mice from colitis. Proc Natl Acad Sci U S A 108:16711-16716).
For immunoblotting, organs or cells were lysed in RIPA buffer. The lysate was separated in sodium dodecyl sulfate-polyacrylamide gel electrophoresis (SDS-PAGE) and transferred to a nitrocellulose membrane. The membranes were incubated with the following primary antibodies at 4 °C overnight: anti-DAPK1 (antibodies-online.com), anti-Rubicon (Cell Signaling), anti-Tβ4 and anti-NLRP3 (Abcam), anti-LC3B (Cell Signaling or Abcam). Normalization was performed by probing the membranes with mouse anti-β-actin and anti-Gapdh antibodies (Sigma-Aldrich). Normalization was performed on mouse β-actin or Gapdh and corresponding pixel density is depicted. LC3-II band density was normalized to LC3-I to obtain ratio. Chemiluminescence detection was performed with LiteAblot Plus chemiluminescence substrate (EuroClone S.p.A.), using the ChemiDocTM XRS+ Imaging System (Bio-Rad) and quantification was obtained by densitometry image analysis using Image Lab 5.1 software (Bio-Rad).
Real-time RT-PCR was performed using CFX96 Touch Real-Time PCR Detection System and SYBR Green chemistry (Bio-Rad). […]

With Thymosin β4 [Tβ4] the “HIF-1α expression in the colon” value (5 mg/kg i.p. 7 consecutive days after DSS (FIG. 2H)) was “restoration”, the weight change (Tβ4 5 mg/kg i.p. after DSS (FIG. 5A)) was “weight regain” and the “disease activity index scores” value (Tβ4 5 mg/kg i.p. after DSS (FIG. 5B)) was “decreased”. The “inflammatory pathology and tissue architecture (H&E colon histology)” value (Tβ4 5 mg/kg i.p. after DSS (FIG. 5C)) was “amelioration”, the “NLRP3 expression in colon” value (Tβ4 5 mg/kg i.p. after DSS (FIG. 5D)) was “decreased” and the “anti-inflammatory cytokines (TGF-β)” value (colon (FIG. 5G)) was “up-regulation”. For the same substance, the Cldn1 expression (colon (FIG. 5H)) was “greatly promoted”, the Ocln expression (colon (FIG. 5H)) was “greatly promoted” and the “inflammatory cytokine levels (IL-1β, MPO, TNF-α, IL-17A)” value (colon homogenates (FIGS. 5E and 5F)) was “decreased”. For the same substance, the “expression of angiogenesis-related genes (Angpt2, Tie2, Vegfa, Fgf2, Epo, Cxcr4)” value (colon homogenates of p47phox-/- mice (FIG. 3D)) was “upregulation”, the “LC3-II expression in colon” value (p47phox-/- mice with colitis, 5 mg/kg i.p. 7 consecutive days after DSS (FIG. 1H)) was “restored” and the “DAPK1 expression in colon” value (p47phox-/- mice with colitis, 5 mg/kg i.p. 7 consecutive days after DSS (FIG. 1I)) was “restored”.
